Read-outs that look alike come from different tables or passages of the source. Marks after values point to notes of the source that are not given here.
Key:
[1] = Drug loading of liposomal versus 10% P123 formulations; type: physicochemical; conditions: prepared at 2 mg/ml; for Drug loading, P123: Pluronic P123 10% weight/volume; for Drug loading, Liposome: liposomal formulation
Description: 5 mg drug and lipids (40% EPG in DMPC) are combined in CH2Cl2 at a drug to lipid ratio of 1:10 w/w in 250 ml round bottom flask. The maximum concentration of drug in solvent is 2 mg/ml. CH2Cl2 is removed rapidly as described in Example 5. The resulting thin film is hydrated with 2.5 ml lactose solution (9.5% w/v) using hand swirling with glass beads at 40° C. Extrusion using Model 4T (Lipex Biomembranes Inc. B.C., Canada) is carried out with the thermostat set at 40° C. The multilamellar vesicles (MLVs) arising from hydration steps of the liposomal formulation were also examined under the microscope. MLVs are successively extruded 5 times through each of the 400 nm, 200 nm and 100 nm polycarbonate membranes (Nuclepore PC, Costar). Extruded samples were diluted 1:100 in PBS (pH 7.4) and the absorbance determined at 690 nm wavelength.
In this experiment liposomal and block copolymer (micellar) photosensitizer formulations of A- and B-ring compounds of EA6 and B3 were compared. Each of the photosensitizer samples was prepared at a final drug concentration of 2 mg/ml. The block copolymer P123, and the liposomal formulations were prepared as described in the Examples 5 and 6, respectively.

[2] = JM4 at 2 mg/ml, after overnight storage and centrifugation
Description: 1 to 2 mg drug and 25-100 mg Pluronic are combined in methylene dichloride (CH2Cl2) to yield drug concentration of 1 mg/ml. CH2Cl2 is removed rapidly by rotary evaporation (Rotavapor R-124, Bucchi B172 Vacobox pump) at 50°, at maximum speed of rotation. Once a steady minimum pressure is achieved, the flask is held under vacuum for a further 20-30 min. […] Samples are kept overnight at room temperature to allow unincorporated drug to fall out, and then spun at 14,000 rpm {Eppendorff, Microfuge} for 30 min. Supernatant is decanted off into a fresh Eppendorff vial, and diluted 1:100 in the iso-osmolar medium used for thin film hydration (PBS or lactose) for determination of absorbance 690 nm (A690). Formulations are stored at 4° C. or frozen at −20° C. for long term storage.
In this experiment the following three selected dihydroxychlorins were examined for formulation with 10% P123. Each of the drugs was prepared to a final concentration level of 1 mg/ml and the formulation protocol used is described in Example 5. These compounds were prepared as described in U.S. patent application Ser. Nos. 09/551,159 and 09/551,160, both filed Apr. 14, 2000, and No. 60/129,324, filed Apr. 14, 1999, all three of which are hereby incorporated by reference as if fully set forth. One of these compounds, JM4, was further tested for drug incorporation using 2.5 to 10% P123.

[3] = Vesicle size of liposomal A-EA6 after microfluidization; type: physicochemical; conditions: for Size: 10 mL batch
Description: MLVs obtained from each of the conventional and micro-thin films of EA6-A in 3% w/w DMPG/DMPC prepared in Example 24 were introduced into the reaction chamber of a small microfluidizer (23 ml capacity; M110S, Microfluidics). […] The reaction chamber was immersed in ice, with the pressure transducer (Dynisco μPR 690) setting adjusted to 10,000 psi.
Use of the microfluidizer required priming the system with 9.2% lactose. The dead volume retained was considerably higher than stated in the manual, and as a result, only ˜2 mL of undiluted sample was recovered after the first pass in each case. […] Processing was carried out for a total of 6 passes, with 200 μl samples being removed for particle sizing following every pass. Due to limited recovery and dilution of the above samples, 2 larger batches (20 mL) were prepared using the conventional thin film process, and microfluidized with a total of 5 passes. To avoid excessive dilution of the unilammelar vesicles, recovery was limited to 8 mL.
Microfluidisation was repeated with larger volumes of 20 mL. […] The final concentration of A-EA6 in both batches (HH02-5 A and HH02-5 B) was 1.5 mg/mL. These samples were processed with the microfluidiser in a hot water bath at 45° C. instead of ice to prevent suspension temperature falling below the phase transition of DMPC in between passes. Size determination was carried out by laser light scattering on a NICOMP™ 370 Submicron Particle Sizer.

[4] = Liposomal drug release to FBS by fluorescence (Ffbs/Ftx); type: in vitro ADME, bovine; conditions: 37° C., n=2
Description: This experiment test drug release from micro-thin film preparations and conventional thin film vesicles (76 nm and 98 nm) produced in Example 25. The assay was carried out using an Aminco-Bowman 2 Fluorescence Spectrometer. It has previously been observed in the liposomal photosensitizer formulations that the fluorescence from the photosensitizer drug is quenched due to the high ratio of drug to lipid present. […] Fluorescence signal from liposomal suspensions is therefore low, and increases only when the drug leaves the bilayer for an alternative binding site.
The increase in fluorescence signal reflects liposomal drug transfer in proportion to the rate and extent of transfer to added serum components.
The liposomal suspension is diluted with 5% Dextrose to give an absorbance of 0.1 at the excitation wavelength (430 nm). […] 100 μl of FBS is added to the cuvette, and increase in fluorescence is monitored (following a quick couple of inversions) over 2-3 min if necessary. Once a steady level is achieved (noted as Ffbs), the liposomal system is disrupted using 0.05% v/v Triton X-100 to get a 100% drug level. The maximum fluorescence level is noted as Ftx. The ratio of Ffbs/Ftx gives an estimation of liposomal drug release, and is highly reproducible (SD ˜0-2% for n=5). Reported release results are based on 2-5 repeat assays depending on instrumental stability.

[5] = Vesicle size of liposomal A-EA6 after microfluidization; type: physicochemical
[6] = pH studies of copolymer formulations; type: physicochemical; conditions: acidification
From the text: Counteracting the oily nature of P123 could be achieved by incorporation of copolymer that is in solid form at room temperature. The use of 1% w/w F127 with 9% w/v P123 instead of 10% P123 (w/v) produced a thin film, which was more readily hydrated. […] This necessitates hydration of the solid drug-polymer with a very mild buffer to counteract acidification which occurs upon use of sterile packed distilled water as commonly practiced in clinical settings. Behavior of poloxamers is unaffected by pH, and the use of buffers would be entirely dependent on ionizable groups present on the drug substance.

[7] = test system: L1210 cells; assay: In vitro phototoxicity (MTT assay after light exposure); type: cell-based
Description: Exposure to drugs was carried out in the presence and absence of fetal calf serum (FCS) as a model to study transfer of drug to cells in vivo. […] A suspension of L1210 cells was prepared and exposed to various drug formulations (drug concentrations ranging from 0-50 ng/ml) either in the absence or presence of 10% fetal calf serum (FCS). One hour later, the drug was removed by pelleting the cells by centrifugation. The pellet was briefly washed with 1 ml DME and resuspended in 5% FCS/DME. 100 μl of the cell suspension was aliquoted into 6 wells of a 96 well plate, and the plate exposed to light at 10 J/cm^2. Viability was determined 24 h post exposure using the MTT assay (Mosmann, J. Immunol. Meth. 65:55-63, 1983).

[8] = test system: M1 rhabdomyosarcoma tumor; assay: PDT tumor recurrence in tumor mouse model; type: in vivo, DBA/2 mouse; set-up: key to Percent (%) Mice Tumor Free: Mice suffered from phototoxic (PT) reaction at the site of light exposure and were subsequently euthanized
Description: Photosensitizer formulations were prepared in 10% w/v Pluronics as described in Example 4. BPD-MA was formulated in F127. B-ring compounds B-EA6 and B-B3, were prepared in P123 due to insufficient drug loading in F127. Liposomal BPD-MA formulation was Verteporfin™ and B-ring compounds were formulated in the same lipid composition. Where DMSO/plasma preparations were made, the DMSO dissolved drug was added directly to mouse plasma and the drug association with different plasma components was observed.
In these experiments the tumor model used was the DBA/2 mouse (males) inoculated intradermally with M1 rhabdomyosarcoma tumor cells (M1, ATCC. When tumors reached a diameter of 4-6 mm, the mice (n=10, unless other wise stated) were treated with photodynamic therapy (PDT). PDT involved intravenous injection of the formulated drug in 0.2 mL volume of PBS. This was followed by exposure of the tumor region to laser light (Argon pumped dye laser (5W), 690 nm, 50J/cm2) 15 min later. Animals were then monitored for tumor recurrence over a 20 day period post treatment.

With `C=Cc1c(C)c2cc3nc(cc4[nH]c(cc5nc(cc1[nH]2)C(C)=C5CCC(=O)OC)c(CCC(=O)OC)c4C)C1(C)C3=CC=C(C(=O)O)C1C(=O)OC` (stereo not drawn) [A-B3] the “Drug loading, P123” value [1] was 1.33 mg/mL and the “Drug loading, Liposome” value [1] was 1.84 mg/mL.

For `Cc1ccc(-c2c3nc(c(-c4ccc(C)cc4)c4ccc([nH]4)c(-c4ccc(C)cc4)c4nc(c(-c5ccc(C)cc5)c5ccc2[nH]5)C(O)C4O)C=C3)cc1` (stereo not drawn) [JM4, 5, 10, 15, 20-tetra (para-methyl phenyl)-2,-3-dihydroxychlorin], the Incorporation ([2]; P123 2.5% w/v) was 0.92 mg/mL, the Incorporation ([2]; P123 5% w/v) was 1.43 mg/mL and the Incorporation ([2]; P123 10% w/v) was 2.00 mg/mL.

With `C=Cc1c(C)c2cc3nc(cc4[nH]c(cc5nc(cc1[nH]2)C(C)=C5CCC(=O)OCCO)c(CCC(=O)OCCO)c4C)C1(C)C3=CC=C(C(=O)OC)C1C(=O)OC` (stereo not drawn) [A-EA6, Diethyleneglycol Ester A-ring] the Size ([3]; conventional thin film, pass 3) was 81 + 21^2 nm, the Size ([3]; conventional thin film, pass 4) was 63 nm and the Size ([3]; conventional thin film, pass 5) was 66 nm. The Size ([3]; conventional thin film, pass 6) was 63 nm, the Mean vesicle size ([3]; conventional thin film, 20 mL, after the first pass) was 98 nm and the Size ([3]; micro-thin film, pass 1) was 141 + 54^2 nm. For the same compound, the Size ([3]; micro-thin film, pass 2) was 62 nm, the Size ([3]; micro-thin film, pass 3) was 67 nm and the Size ([3]; micro-thin film, pass 4) was 59 nm. For the same compound, the Size ([3]; micro-thin film, pass 5) was 60 nm, the Size ([3]; micro-thin film, pass 6) was 57 nm and the Vesicle size ([3]; microfluidized, 10 mL volume) was about 60 nm. For the same compound, the “Drug release from liposomal formulation to 5% FBS” value ([4]; micro-thin film batch) was 72%, the “Drug release from liposomal formulation to 5% FBS” value ([4]; thin film batch) was 67% and the Vesicle size ([5]; final extrusion through 100 nm filters) was 100-110 nm. For the same compound, the Mean vesicle size ([5]; micro-thin film, 20 mL, after the first pass) was 76 nm, the “Drug loading, P123” value [1] was 1.82 mg/mL and the “Drug loading, Liposome” value [1] was 0.98 mg/mL.

With `C=Cc1c(C)c2cc3nc(cc4[nH]c(cc5nc(cc1[nH]2)C1(C)C5=CC=C(C(=O)OC)C1C(=O)OC)c(C)c4CCC(=O)OCCO)C(CCC(=O)OCCO)=C3C` (stereo not drawn) [B-EA6] the “pH dependency of formulation stability” value [6] was “does not display any pH-dependency”, the LD50 ([7]; Carrier Copolymer (P123), +FCS (10%)) was 12.9* ng/ml and the LD50 ([7]; Carrier Copolymer (P123), −FCS) was 2.06* ng/ml. It also gave an LD50 ([7]; Carrier DMSO, +FCS (10%)) of 20.0 ng/mL, an LD50 ([7]; Carrier DMSO, −FCS) of 4.7 ng/mL and an LD50 ([7]; Carrier Liposomal, +FCS (10%)) of 19.7 ng/mL. For the same compound, the LD50 ([7]; Carrier Liposomal, −FCS, 1 h drug, light 10 J/cm^2, MTT 24 h) was 4.7 ng/mL, the “Reaction at the irradiated site” value ([8]; 1 mg/kg, formulated in P123, tumor bearing mice) was “strong phototoxic reaction (edema)” and the “Percent (%) Mice Tumor Free” value ([8]; Liposomal, 1.0 mg/kg i.v., 690 nm 50J/cm2 15 min later, Day 7) was 90%. The “Percent (%) Mice Tumor Free” value ([8]; Liposomal, 1.0 mg/kg, Day 14) was 70%, the “Percent (%) Mice Tumor Free” value ([8]; Liposomal, 1.0 mg/kg, Day 20) was 60% and the “Percent (%) Mice Tumor Free” value ([8]; Pluronic P123, 0.5 mg/kg, Day 7) was 80%. For the same compound, the “Percent (%) Mice Tumor Free” value ([8]; Pluronic P123, 0.5 mg/kg, Day 14) was 60%, the “Percent (%) Mice Tumor Free” value ([8]; Pluronic P123, 0.5 mg/kg, Day 20) was 40% and the “Percent (%) Mice Tumor Free” value ([8]; Pluronic P123, 1.0 mg/kg, Day 7) was “PT^1”. For the same compound, the “Percent (%) Mice Tumor Free” value ([8]; Pluronic P123, 1.0 mg/kg, Day 14) was “PT^1”, the “Percent (%) Mice Tumor Free” value ([8]; Pluronic P123, 1.0 mg/kg, Day 20) was “PT^1” and the “Drug loading, P123” value [1] was 0.37 mg/mL. For the same compound, the “Drug loading, Liposome” value [1] was 0.06 mg/mL.
